# Measurements: US12036312B2, “Non-aqueous topical compositions comprising a halogenated salicylanilide” (priority 2016, dated 2024)
# Where two headings read alike, the source gives them in different places.
# Tests used:
# S. aureus = test: MIC assay according to CLSI criteria, Example 2, S. aureus strains; format: cell-based, Staphylococcus aureus; settings: Staphylococcus aureus, read-out: MIC
# Method in brief: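 Broth microdilution per CLSI in cation-adjusted Mueller Hinton broth, ~5×10^5 exponential-phase cells per well, aerobic at 37° C for 18 hours; OD600 read at end.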
# [1] = tested on: methicillin-resistant Staphylococcus aureus (MRSA 01, MRSA 15, MRSA 16); test: Resistance mutation frequency evaluation, Example 3; format: cell-based
smiles,measurement,setting,value
"CC(=O)O[C@H]1C[C@@]2(C)[C@@H](C[C@@H](O)[C@H]3[C@@]4(C)CC[C@@H](O)[C@@H](C)[C@@H]4CC[C@@]32C)/C1=C(\CCC=C(C)C)C(=O)O [Fusidic acid, fusidic acid]",MIC,"S. aureus; MRSA, strain MRSA 01",0.125 µg/mL
same,MIC,"S. aureus; MRSA, strain MRSA 02",0.5 µg/mL
same,MIC,"S. aureus; MRSA, strain MRSA 03",16 µg/mL
same,MIC,"S. aureus; MRSA, strain MRSA 04",0.25 µg/mL
same,MIC,"S. aureus; MRSA, strain MRSA 05",0.125 µg/mL
same,MIC,"S. aureus; MRSA, strain MRSA 06",0.125 µg/mL
same,MIC,"S. aureus; MRSA, strain MRSA 07",0.25 µg/mL
same,MIC,"S. aureus; MRSA, strain MRSA 08",0.125 µg/mL
same,MIC,"S. aureus; MRSA, strain MRSA 09",0.25 µg/mL
same,MIC,"S. aureus; MRSA, strain MRSA 10",1 µg/mL
same,MIC,"S. aureus; MRSA, strain MRSA 11",1 µg/mL
same,MIC,"S. aureus; MRSA, strain MRSA 12",4 µg/mL
same,MIC,"S. aureus; MRSA, strain MRSA 14",> 16 µg/mL
same,MIC,"S. aureus; MRSA, strain MRSA 16",0.25 µg/mL
same,MIC,"S. aureus; MRSA, strain MRSA 18",0.25 µg/mL
same,MIC,"S. aureus; MRSA, strain MRSA 19",0.125 µg/mL
same,MIC,"S. aureus; MRSA, strain MRSA 20",0.125 µg/mL
same,MIC,"S. aureus; MRSA, strain MRSA 21",0.125 µg/mL
same,MIC,"S. aureus; MRSA, strain MRSA 23",0.25 µg/mL
same,MIC,"S. aureus; MRSA, strain MRSA 24",0.25 µg/mL
same,MIC,"S. aureus; MRSA, strain MRSA 25",16 µg/mL
same,MIC,"S. aureus; MRSA, strain MRSA 26",0.5 µg/mL
same,MIC,"S. aureus; MRSA, strain MRSA 27",0.25 µg/mL
same,MIC,"S. aureus; MRSA, strain MRSA 30",0.125 µg/mL
same,MIC,"S. aureus; MRSA, strain MRSA 31",0.25 µg/mL
same,MIC,"S. aureus; MRSA, strain MRSA 32",0.5 µg/mL
same,MIC,"S. aureus; MRSA, strain MRSA 33",0.5 µg/mL
same,MIC,"S. aureus; MRSA, strain MRSA 34",0.25 µg/mL
same,MIC,"S. aureus; MRSA, strain MRSA 35",16 µg/mL
same,MIC,"S. aureus; MRSA, strain MRSA 36",8 µg/mL
same,MIC,"S. aureus; MRSA, strain MRSA 37",0.5 µg/mL
same,MIC,"S. aureus; MRSA, strain MRSA 38",8 µg/mL
same,MIC,"S. aureus; MRSA, strain MRSA 39",8 µg/mL
same,MIC,"S. aureus; MRSA, strain MRSA 40",0.125 µg/mL
same,MIC,"S. aureus; MRSA, strain MRSA 42",0.25 µg/mL
same,MIC,"S. aureus; MRSA, strain MRSA 49",0.25 µg/mL
same,MIC,"S. aureus; MRSA, strain MRSA 50",0.03 µg/mL
same,MIC,"S. aureus; MRSA, strain MRSA 53",0.25 µg/mL
same,MIC,"S. aureus; MRSA, strain MRSA 64",0.25 µg/mL
same,MIC,"S. aureus; MRSA, strain MRSA 67",0.25 µg/mL
same,MIC,"S. aureus; MRSA, strain MRSA 72",16 µg/mL
same,MIC,"S. aureus; MRSA, strain MRSA 73",0.25 µg/mL
same,MIC,"S. aureus; MRSA, strain MRSA 74",0.25 µg/mL
same,MIC,"S. aureus; MRSA, strain MRSA 75",0.5 µg/mL
same,MIC,"S. aureus; MRSA, strain MRSA 76",0.25 µg/mL
same,MIC,"S. aureus; MRSA, strain MRSA 77",16 µg/mL
same,MIC,"S. aureus; MRSA, strain MRSA 79",0.5 µg/mL
same,MIC,"S. aureus; MRSA, strain MRSA 81",0.25 µg/mL
same,MIC,"S. aureus; MRSA, strain MRSA 85",4 µg/mL
same,MIC,"S. aureus; MRSA, strain MRSA 86",> 16 µg/mL
same,MIC,"S. aureus; MRSA, strain MRSA 87",0.125 µg/mL
same,MIC,"S. aureus; MRSA, strain MRSA 88",0.06 µg/mL
same,MIC,"S. aureus; MRSA, strain MRSA 90",16 µg/mL
same,MIC,"S. aureus; MRSA, strain MRSA 91",0.25 µg/mL
same,MIC,"S. aureus; MRSA, strain MRSA 92",8 µg/mL
same,MIC,"S. aureus; MRSA, strain MRSA 94",0.125 µg/mL
same,MIC,"S. aureus; MRSA, strain MRSA 95",8 µg/mL
same,MIC,"S. aureus; MRSA, strain MRSA 96",0.125 µg/mL
same,MIC,"S. aureus; MRSA, strain MRSA 97",8 µg/mL
same,MIC,"S. aureus; MRSA, strain MRSA 99",0.125 µg/mL
same,MIC,"S. aureus; MRSA, strain MRSA 100",0.125 µg/mL
same,MIC,"S. aureus; MRSA, strain MRSA 101",8 µg/mL
same,MIC,"S. aureus; MRSA, strain MRSA 103",8 µg/mL
same,MIC,"S. aureus; MRSA, strain MRSA 104",0.25 µg/mL
same,MIC,"S. aureus; MRSA, strain MRSA 105",0.125 µg/mL
same,MIC,"S. aureus; MRSA, strain MRSA 106",0.125 µg/mL
same,MIC,"S. aureus; MRSA, strain MRSA 107",0.25 µg/mL
same,MIC,"S. aureus; MRSA, strain MRSA 108",4 µg/mL
same,MIC,"S. aureus; MRSA, strain MRSA 109",0.25 µg/mL
same,MIC,"S. aureus; MRSA, strain MRSA 111",8 µg/mL
same,MIC,"S. aureus; MRSA, strain MRSA 113",0.125 µg/mL
same,MIC,"S. aureus; MSSA, strain MSSA 01",4 µg/mL
same,MIC,"S. aureus; MSSA, strain MSSA 02",4 µg/mL
same,MIC,"S. aureus; NEWMAN, strain Newman",0.25 µg/mL
same,mutational frequency,[1]; at MIC×1,≥ 4.10^−5
same,mutational frequency,[1]; at MIC×10,3.10^−7
